Consider 14 compounds from US8557819B2 (priority 2005, dated 2013).

The structures appear in SMILES notation. Structures can show the parent of a compound that is named as a salt.

The target in data set [1] is nicotinic receptors containing the α7 subunit (Rattus norvegicus, UniProt Q05941). Nature of the data set: biochemical. The data set is classed as binding.
Chain of nicotinic receptors containing the α7 subunit (Q05941 23-502): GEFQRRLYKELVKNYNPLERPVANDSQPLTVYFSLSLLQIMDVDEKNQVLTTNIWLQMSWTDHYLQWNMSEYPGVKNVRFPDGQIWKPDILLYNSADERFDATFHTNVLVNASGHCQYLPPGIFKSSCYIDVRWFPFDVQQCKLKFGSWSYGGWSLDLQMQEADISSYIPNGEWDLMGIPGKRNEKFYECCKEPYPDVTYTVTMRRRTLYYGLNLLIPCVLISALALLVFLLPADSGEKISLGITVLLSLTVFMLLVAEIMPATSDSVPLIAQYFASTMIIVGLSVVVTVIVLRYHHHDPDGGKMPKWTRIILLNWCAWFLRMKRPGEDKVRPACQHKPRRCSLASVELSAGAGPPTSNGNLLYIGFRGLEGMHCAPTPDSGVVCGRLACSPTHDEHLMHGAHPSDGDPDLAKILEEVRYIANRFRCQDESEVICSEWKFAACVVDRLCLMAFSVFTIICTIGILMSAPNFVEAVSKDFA

In the case of `c1coc(-c2ccc(C34CCCN(CC3)C4)nn2)c1` (racemic) [Compound 8], in data set [1], the concentration for half-maximal inhibition (IC50) (in general, the point on the concentration scale where inhibition reaches its midpoint) came to 442 nM. In the case of `c1cc(-c2ccc(C34CCCN(CC3)C4)nn2)co1` (stereo not drawn) (as salt: HCl), the melting point (usually the temperature, or range, at which the solid turns liquid) was 226 to 228 °C. The same measure, in the same setting: the result for `c1nc(-c2ccc(C34CCCN(CC3)C4)nn2)c[nH]1` (stereo not drawn) (as salt: HCl) [18] reads 271 to 273 °C; that for `c1c[nH]c(-c2ccc(C34CCCN(CC3)C4)nn2)c1` (stereo not drawn), 207 to 209 °C. Regarding `c1cncc(-c2ccc(C34CCCN(CC3)C4)nn2)c1` (racemic), the melting point fell in the range of 131 to 133 °C.

As to `COc1ccc(-c2ccc(C34CCCN(CC3)C4)nn2)cc1` (racemic) [Compound 7], in data set [1], the midpoint of inhibition, the IC50, lay at 164 nM. `c1n[nH]cc1-c1ccc(C23CCCN(CC2)C3)nn1` (stereo not drawn) (as salt: HBr) [22] displayed a melting point of 295 to 297 °C.

`c1cc(-c2ccc(C34CCCN(CC3)C4)nn2)co1` (racemic) came in with a melting point of 140 to 141 °C. With `c1n[nH]cc1-c1ccc(C23CCCN(CC2)C3)nn1` (stereo not drawn) (as salt: HBr) [20], the melting point fell in the range of 221 to 223 °C. Take `Cc1csc(-c2ccc(C34CCCN(CC3)C4)nn2)c1` (racemic) [Compound 3]: the melting point lay in the range of 139 to 140 °C. Further, in data set [1], inhibition was half-maximal at 428 nM (IC50).

Regarding `c1c[nH]c(-c2ccc(C34CCCN(CC3)C4)nn2)n1` (stereo not drawn) (as salt: HBr), the melting point lay in the range of 290 to 292 °C.

In turn, `c1coc(-c2ccc(C34CCCN(CC3)C4)nn2)c1` (racemic) (as salt: HCl) [Compound 8] had a melting point of 274 to 275 °C. `COc1ccc(-c2ccc(C34CCCN(CC3)C4)nn2)cc1` (racemic) (as salt: HCl) [Compound 7] registered a melting point of 229 to 231 °C. The same measure, in the same setting: with `Clc1ccc(C23CCCN(CC2)C3)nn1` (racemic) (as salt: HCl) the figure was 234 to 235 °C.
